Tested on: PC-3 multi-cell spheroids, viability
Test: Anticancer human tumor PC-3 cell line growth inhibition [IpAb];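 further: spheroids exposed to compounds for 7 days before readout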;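 on viability, T/C: 100% = DMSO vehicle control wells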
Conditions: for IC50: curve of first compound; for viability, T/C: stronger effect = lower value
Summary of the method: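 Multi-cell spheroids of 60% tumour cells, 25% HUVEC and 15% MSC in ultra-low-attachment U-bottom wells, treated with agents combined with ipatasertib or abemaciclib. Half-log ranges top out near clinical Cmax, or 10 microM when Cmax is unknown.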

[1] = second compound 0.01 µM, first compound 0.0316 µM
[2] = second compound 0.01 µM, first compound 0.1 µM
[3] = second compound 0.01 µM, first compound 0.316 µM
[4] = second compound 0.01 µM, first compound 1 µM
[5] = second compound 0.01 µM, first compound 3.16 µM
[6] = second compound 0.01 µM, first compound 10 µM
[7] = second compound 0.0316 µM, first compound 0.0316 µM
[8] = second compound 0.0316 µM, first compound 0.1 µM
[9] = second compound 0.0316 µM, first compound 0.316 µM
[10] = second compound 0.0316 µM, first compound 1 µM
[11] = second compound 0.0316 µM, first compound 3.16 µM
[12] = second compound 0.0316 µM, first compound 10 µM
[13] = second compound 0.1 µM, first compound 0.0316 µM
[14] = second compound 0.1 µM, first compound 0.1 µM
[15] = second compound 0.1 µM, first compound 0.316 µM
[16] = second compound 0.1 µM, first compound 1 µM
[17] = second compound 0.1 µM, first compound 3.16 µM
[18] = second compound 0.1 µM, first compound 10 µM
[19] = second compound 0.316 µM, first compound 0.0316 µM
[20] = second compound 0.316 µM, first compound 0.1 µM
[21] = second compound 0.316 µM, first compound 0.316 µM
[22] = second compound 0.316 µM, first compound 1 µM
[23] = second compound 0.316 µM, first compound 3.16 µM
[24] = second compound 0.316 µM, first compound 10 µM
[25] = second compound 1 µM, first compound 0.0316 µM
[26] = second compound 1 µM, first compound 0.1 µM
[27] = second compound 1 µM, first compound 0.316 µM
[28] = second compound 1 µM, first compound 1 µM
[29] = second compound 1 µM, first compound 3.16 µM
[30] = second compound 1 µM, first compound 10 µM

| Compound | IC50 (second compound 0.01 µM) [nM] | IC50 (second compound 0.0316 µM) [nM] | IC50 (second compound 0.1 µM) [nM] | IC50 (second compound 0.316 µM) [nM] | IC50 (second compound 1 µM) [nM] | viability, T/C [1] [%] | viability, T/C [2] [%] | viability, T/C [3] [%] | viability, T/C [4] [%] | viability, T/C [5] [%] | viability, T/C [6] [%] | viability, T/C [7] [%] | viability, T/C [8] [%] | viability, T/C [9] [%] | viability, T/C [13] [%] | viability, T/C [14] [%] | viability, T/C [19] [%] | viability, T/C [20] [%] | viability, T/C [25] [%] | viability, T/C [26] [%] | other results |
| --- | --- | --- | --- | --- | --- | --- | --- | --- | --- | --- | --- | --- | --- | --- | --- | --- | --- | --- | --- | --- | --- |
| C=CC(=O)N1CCN(c2nc(=O)n(-c3c(C)ccnc3C(C)C)c3nc(-c4c(O)cccc4F)c(F)cc23)C(C)C1 (stereo not given) + CCN1CCN(Cc2ccc(Nc3ncc(F)c(-c4cc(F)c5nc(C)n(C(C)C)c5c4)n3)nc2)CC1 | > 10000 | > 10000 | > 10000 | > 10000 | 5260 | 84.3 | 96 | 98.6 | 101 | 114 | 116 | 51.8 | 57.3 | 69.8 | 58.1 | 60.2 | 65.2 | 67.8 | 56.3 | 65.5 | viability, T/C [10]: 79.2%; viability, T/C [11]: 107%; viability, T/C [12]: 78.5%; viability, T/C [15]: 60.4%; viability, T/C [16]: 54.7%; viability, T/C [17]: 64.2%; viability, T/C [18]: 74.8%; viability, T/C [21]: 68.4%; viability, T/C [22]: 70.6%; viability, T/C [23]: 61%; viability, T/C [24]: 48.2%; viability, T/C [27]: 60.5%; viability, T/C [28]: 59.1%; viability, T/C [29]: 60.3%; viability, T/C [30]: 37.5% |
| Cn1ncc(Cl)c1-c1cc(C(=O)NC(CN)Cc2cccc(F)c2)sc1Cl (stereo not given) + CCN1CCN(Cc2ccc(Nc3ncc(F)c(-c4cc(F)c5nc(C)n(C(C)C)c5c4)n3)nc2)CC1 | 127 | 101 | 62.9 | 52.6 | < 31.6 | 70.5 | 55.3 | 35.8 | 17.5 | 15.5 | 0.14 | 57.2 | 53 | 26.9 | 53.2 | 48.3 | 56.5 | 44 | 46.3 | 38.9 | viability, T/C [10]: 13.8%; viability, T/C [11]: 13.8%; viability, T/C [12]: 0.1%; viability, T/C [15]: 17.5%; viability, T/C [16]: 13.3%; viability, T/C [17]: 9.97%; viability, T/C [18]: 0.1%; viability, T/C [21]: 19.4%; viability, T/C [22]: 13.9%; viability, T/C [23]: 11.6%; viability, T/C [24]: 0.16%; viability, T/C [27]: 28%; viability, T/C [28]: 17.2%; viability, T/C [29]: 12.1%; viability, T/C [30]: 0.16% |
| Cn1ncnc1[C@H]1c2n[nH]c(=O)c3cc(F)cc(c23)N[C@@H]1c1ccc(F)cc1 + CCN1CCN(Cc2ccc(Nc3ncc(F)c(-c4cc(F)c5nc(C)n(C(C)C)c5c4)n3)nc2)CC1 | 9.02 | 2.23 | 0.803 | 28.4 | 5.12 | 46 | 44.3 | – | – | – | – | 48 | 39 | – | 44 | 42.7 | 47.6 | 37.8 | 44.6 | 29.4 | viability, T/C (second compound 0.01 µM, first compound 0.000316 µM): 82%; viability, T/C (second compound 0.01 µM, first compound 0.001 µM): 61.4%; viability, T/C (second compound 0.01 µM, first compound 0.00316 µM): 60.6%; viability, T/C (second compound 0.01 µM, first compound 0.01 µM): 47.1%; viability, T/C (second compound 0.0316 µM, first compound 0.000316 µM): 61.5%; viability, T/C (second compound 0.0316 µM, first compound 0.001 µM): 50.8%; viability, T/C (second compound 0.0316 µM, first compound 0.00316 µM): 47.3%; viability, T/C (second compound 0.0316 µM, first compound 0.01 µM): 49.3%; viability, T/C (second compound 0.1 µM, first compound 0.000316 µM): 48.2%; viability, T/C (second compound 0.1 µM, first compound 0.001 µM): 50.3%; viability, T/C (second compound 0.1 µM, first compound 0.00316 µM): 52.1%; viability, T/C (second compound 0.1 µM, first compound 0.01 µM): 48.6%; viability, T/C (second compound 0.316 µM, first compound 0.000316 µM): 59.6%; viability, T/C (second compound 0.316 µM, first compound 0.001 µM): 58.2%; viability, T/C (second compound 0.316 µM, first compound 0.00316 µM): 64%; viability, T/C (second compound 0.316 µM, first compound 0.01 µM): 54.5%; viability, T/C (second compound 1 µM, first compound 0.000316 µM): 61%; viability, T/C (second compound 1 µM, first compound 0.001 µM): 48.8%; viability, T/C (second compound 1 µM, first compound 0.00316 µM): 46.5%; viability, T/C (second compound 1 µM, first compound 0.01 µM): 49.6% |

From PubChem BioAssay AID2060327 (Molecular Pharmacology Branch, DTP, NCI, 2025)
